Patent US4258180A, “C6-Modified cyclodextrin sulfate salts as complement inhibitors” (American Cyanamid Company, priority 1979, dated 1981)
Counter-ions that a name gives are not always drawn.

Legend:
complement system = conditions: British Journal of Experimental Pathology, 33, 327-339 (1952); cited from earlier work
[1] = tested on: hereditary angio-neurotic edema; conditions: literature reports; cited from earlier work
activated human C1 = activated human C1 (Homo sapiens, UniProt P09871); assay: Test Code 026 (C1 inhibitor); format: biochemical; conditions: serial dilution assay, twofold dilutions; higher well number indicates higher activity
Source text: (§1) An active inhibitor protects C2 from C1 and C4; (ii) Test Code 035 (C3-C9 inhibitor)--This test determines the ability of the late components of human complement (C3-C9) to lyse EAC 142 in the presence of appropriate dilutions of the test compound. An active inhibitor protects EAC 142 from lysis by human C3-C9; (iii) Test Code 036 (C-Shunt inhibitor)--In this test human erythrocytes rendered fragile are lysed in autologous serum via the shunt pathway activated by cobra venom factor in the presence of appropriate dilutions of the test compound. Inhibition of the shunt pathway results in failure of lysis; (iv) Forssman Vasculitis Test--Here, the well known complement dependent lesion, Forssman Vasculitis, is produced in guinea pigs by intradermal injection of rabbit anti-Forssman antiserum. The lesion is measured in terms of diameter, edema and hemorrhage and the extent to which a combined index of these is inhibited by prior intraperitoneal injection of the test compound at 200 mg/kg is then reported, unless otherwise stated; (v) Forssman Shock Test--Lethal shock is produced in guinea pigs by an i.v. injection of anti-Forssman antiserum and the harmonic mean death time of treated guinea pigs is compared with that of simultaneous controls; (vi) Complement Level Reduction Test--In this test, the above dosed guinea pigs, or others, are bled for serum and the complement level is determined in undiluted serum by the capillary tube method of U.S. Pat. No. 3,876,376 and compared to undosed control guinea pigs; and (vii) Cap 50 Test--Here, appropriate amounts of the test compound are added to a pool of guinea pig serum in vitro, after which the undiluted serum capillary tube assay referred to above is run. The concentration of compound inhibiting 50% is reported.

[2] = tested on: late components of human complement (C3-C9); assay: Test Code 035 (C3-C9 inhibitor), lysis of EAC 142; format: biochemical; conditions: serial dilution assay, twofold dilutions; higher well number indicates higher activity; N = Negative
Source text: as §1

shunt pathway = assay: Test Code 036 (C-Shunt inhibitor), lysis of fragile human erythrocytes in autologous serum, cobra venom factor; format: biochemical; conditions: serial dilution assay, twofold dilutions; higher well number indicates higher activity; N = Negative
Source text: as §1

| Compound | anticomplementary effect (complement system) | treatment of hereditary angio-neurotic edema [1] | 026 Activity in wells (activated human C1) | 035 Activity in wells [2] | 036 Activity in wells (shunt pathway) |
| --- | --- | --- | --- | --- | --- |
| Nc1ccc2cc(S(=O)(=O)O)cc(O)c2c1N=Nc1ccc(NC(=O)Nc2ccc(N=Nc3c(N)ccc4cc(S(=O)(=O)O)cc(O)c34)c(S(=O)(=O)O)c2)cc1S(=O)(=O)O [chlorazol fast pink, 3,3'-ureylenebis-[6-(2-amino-8-hydroxy-6-sulfo-1-naphthylazo)]benzenesulfonic acid, tetrasodium salt] | anticomplementary effect |  |  |  |  |
| NCCCCCC(=O)O [epsilon-aminocaproic acid] |  | used with success |  |  |  |
| NC[C@H]1CC[C@H](C(=O)O)CC1 [tranexamic acid] |  | used with success |  |  |  |
| [N-]=[N+]=NC[C@H]1O[C@@H]2O[C@H]3[C@H](OS(=O)(=O)O)[C@@H](OS(=O)(=O)O)[C@@H](O[C@H]4[C@H](OS(=O)(=O)O)[C@@H](OS(=O)(=O)O)[C@@H](O[C@H]5[C@H](OS(=O)(=O)O)[C@@H](OS(=O)(=O)O)[C@@H](O[C@H]6[C@H](OS(=O)(=O)O)[C@@H](OS(=O)(=O)O)[C@@H](O[C@H]7[C@H](OS(=O)(=O)O)[C@@H](OS(=O)(=O)O)[C@@H](O[C@H]8[C@H](OS(=O)(=O)O)[C@@H](OS(=O)(=O)O)[C@@H](O[C@H]1[C@H](OS(=O)(=O)O)[C@H]2OS(=O)(=O)O)O[C@@H]8CN=[N+]=[N-])O[C@@H]7CN=[N+]=[N-])O[C@@H]6CN=[N+]=[N-])O[C@@H]5CN=[N+]=[N-])O[C@@H]4CN=[N+]=[N-])O[C@@H]3CN=[N+]=[N-] [β-Cyclo[6-azido-6-deoxy]dextrin poly(H-sulfate)poly-trimethy] [6,6',6",6'",6"",6'"",6"""-Heptaazido-6,6',6",6'",6"",6'"",6"""-heptadeoxy-β-cyclodextrin, tetradecakis(H-sulfate), tetradecasalt with trimethylamine] |  |  | 2 wells | N | N |
| O=S(=O)(O)O[C@@H]1[C@@H](OS(=O)(=O)O)[C@H]2O[C@H]3[C@H](OS(=O)(=O)O)[C@@H](OS(=O)(=O)O)[C@@H](O[C@H]4[C@H](OS(=O)(=O)O)[C@@H](OS(=O)(=O)O)[C@@H](O[C@H]5[C@H](OS(=O)(=O)O)[C@@H](OS(=O)(=O)O)[C@@H](O[C@H]6[C@H](OS(=O)(=O)O)[C@@H](OS(=O)(=O)O)[C@@H](O[C@H]7[C@H](OS(=O)(=O)O)[C@@H](OS(=O)(=O)O)[C@@H](O[C@H]8[C@H](OS(=O)(=O)O)[C@@H](OS(=O)(=O)O)[C@@H](O[C@@H]1[C@@H](CBr)O2)O[C@@H]8CBr)O[C@@H]7CBr)O[C@@H]6CBr)O[C@@H]5CBr)O[C@@H]4CBr)O[C@@H]3CBr [β-Cyclo[6-bromo-6-deoxy]dextrin poly(H-sulfate)poly-sodium s] [6,6',6",6'",6"",6'"",6"""-Heptabromo-6,6',6",6'",6"",6'"",6"""-heptadeoxy-β-cyclodextrin, tetradecakis(H-sulfate), tetradecasodium salt] |  |  | 7 wells | 3 wells | 5 wells |
| O=S(=O)(O)O[C@@H]1[C@@H](OS(=O)(=O)O)[C@H]2O[C@H]3[C@H](OS(=O)(=O)O)[C@@H](OS(=O)(=O)O)[C@@H](O[C@H]4[C@H](OS(=O)(=O)O)[C@@H](OS(=O)(=O)O)[C@@H](O[C@H]5[C@H](OS(=O)(=O)O)[C@@H](OS(=O)(=O)O)[C@@H](O[C@H]6[C@H](OS(=O)(=O)O)[C@@H](OS(=O)(=O)O)[C@@H](O[C@H]7[C@H](OS(=O)(=O)O)[C@@H](OS(=O)(=O)O)[C@@H](O[C@H]8[C@H](OS(=O)(=O)O)[C@@H](OS(=O)(=O)O)[C@@H](O[C@@H]1[C@@H](CBr)O2)O[C@@H]8CBr)O[C@@H]7CBr)O[C@@H]6CBr)O[C@@H]5CBr)O[C@@H]4CBr)O[C@@H]3CBr [β-Cyclo[6-bromo-6-dexoy]dextrin poly(H-sulfate)poly-trimethy] [6,6',6",6'",6"",6'""-Heptabromo-6,6',6",6'",6"",6'"",6"""-heptadeoxy-β-cyclodextrin tetradecakis(H-sulfate), tatradecasalt with trimethylamine] |  |  | 6 wells | 3 wells | 4 wells |
| N#CSC[C@H]1O[C@@H]2O[C@H]3[C@H](OS(=O)(=O)O)[C@@H](OS(=O)(=O)O)[C@@H](O[C@H]4[C@H](OS(=O)(=O)O)[C@@H](OS(=O)(=O)O)[C@@H](O[C@H]5[C@H](OS(=O)(=O)O)[C@@H](OS(=O)(=O)O)[C@@H](O[C@H]6[C@H](OS(=O)(=O)O)[C@@H](OS(=O)(=O)O)[C@@H](O[C@H]7[C@H](OS(=O)(=O)O)[C@@H](OS(=O)(=O)O)[C@@H](O[C@H]8[C@H](OS(=O)(=O)O)[C@@H](OS(=O)(=O)O)[C@@H](O[C@H]1[C@H](OS(=O)(=O)O)[C@H]2OS(=O)(=O)O)O[C@@H]8CSC#N)O[C@@H]7CSC#N)O[C@@H]6CSC#N)O[C@@H]5CSC#N)O[C@@H]4CSC#N)O[C@@H]3CSC#N [β-Cyclo[6-deoxy-6-thiocyanato]dextrin poly(H-sulfate)poly-so] [6,6',6",6'",6"",6'"",6"""-Heptadeoxy-6,6',6",6'",6"",6'"",6"""-heptathiocyanato-β-cyclodextrin, tetradecakis(H-sulfate), tetradecasodium salt] |  |  | 7 wells | 2 wells | 4 wells |
| N#CSC[C@H]1O[C@@H]2O[C@H]3[C@H](OS(=O)(=O)O)[C@@H](OS(=O)(=O)O)[C@@H](O[C@H]4[C@H](OS(=O)(=O)O)[C@@H](OS(=O)(=O)O)[C@@H](O[C@H]5[C@H](OS(=O)(=O)O)[C@@H](OS(=O)(=O)O)[C@@H](O[C@H]6[C@H](OS(=O)(=O)O)[C@@H](OS(=O)(=O)O)[C@@H](O[C@H]7[C@H](OS(=O)(=O)O)[C@@H](OS(=O)(=O)O)[C@@H](O[C@H]8[C@H](OS(=O)(=O)O)[C@@H](OS(=O)(=O)O)[C@@H](O[C@H]1[C@H](OS(=O)(=O)O)[C@H]2OS(=O)(=O)O)O[C@@H]8CSC#N)O[C@@H]7CSC#N)O[C@@H]6CSC#N)O[C@@H]5CSC#N)O[C@@H]4CSC#N)O[C@@H]3CSC#N [β-Cyclo[6-deoxy-6-thiocyanato]dextrin poly(H-sulfate)poly-tr] [6,6',6",6'",6"",6'"",6"""-Heptadeoxy-6,6',6",6'",6"",6'"",6""-heptathiocyanato-β-cyclodextrin, tetradecakis(H-sulfte), tetradecasalt with trimethylamine] |  |  | 4 wells | N | 1 wells |
| C[C@H]1O[C@@H]2O[C@H]3[C@H](OS(=O)(=O)O)[C@@H](OS(=O)(=O)O)[C@@H](O[C@H]4[C@H](OS(=O)(=O)O)[C@@H](OS(=O)(=O)O)[C@@H](O[C@H]5[C@H](OS(=O)(=O)O)[C@@H](OS(=O)(=O)O)[C@@H](O[C@H]6[C@H](OS(=O)(=O)O)[C@@H](OS(=O)(=O)O)[C@@H](O[C@H]7[C@H](OS(=O)(=O)O)[C@@H](OS(=O)(=O)O)[C@@H](O[C@H]8[C@H](OS(=O)(=O)O)[C@@H](OS(=O)(=O)O)[C@@H](O[C@H]1[C@H](OS(=O)(=O)O)[C@H]2OS(=O)(=O)O)O[C@@H]8C)O[C@@H]7C)O[C@@H]6C)O[C@@H]5C)O[C@@H]4C)O[C@@H]3C [β-Cyclo[6-deoxy]dextrin poly(H-sulfate)poly-sodium salt] [6,6',6",6'",6"",6'"",6"""-Heptadeoxy-β-cyclodextrin, tetradecakis(H-sulfate), tetradecasodium salt] |  |  | 9 wells | 4 wells | 5 wells |
| C[C@H]1O[C@@H]2O[C@H]3[C@H](OS(=O)(=O)O)[C@@H](OS(=O)(=O)O)[C@@H](O[C@H]4[C@H](OS(=O)(=O)O)[C@@H](OS(=O)(=O)O)[C@@H](O[C@H]5[C@H](OS(=O)(=O)O)[C@@H](OS(=O)(=O)O)[C@@H](O[C@H]6[C@H](OS(=O)(=O)O)[C@@H](OS(=O)(=O)O)[C@@H](O[C@H]7[C@H](OS(=O)(=O)O)[C@@H](OS(=O)(=O)O)[C@@H](O[C@H]8[C@H](OS(=O)(=O)O)[C@@H](OS(=O)(=O)O)[C@@H](O[C@H]1[C@H](OS(=O)(=O)O)[C@H]2OS(=O)(=O)O)O[C@@H]8C)O[C@@H]7C)O[C@@H]6C)O[C@@H]5C)O[C@@H]4C)O[C@@H]3C [β-Cyclo[6-deoxy]dextrin poly(H-sulfate)poly-trimethylamine s] [6,6',6",6'",6"",6'"",6"""-Heptadeoxy-β-cyclodextrin, tetradecakis(H-sulfate), tetradecasalt with trimethylamine] |  |  | 7 wells | 2 wells | 4 wells |
| heparin | anticomplementary effect |  |  |  |  |
